Patent US8440658B2, “Cyclic urea inhibitors of 11β-hydroxysteroid dehydrogenase 1” (Vitae Pharmaceuticals, Inc., priority 2007, dated 2013)
pIC50: −log10 of the molar value.

Molecular target: T1, human 11β-HSD1 (Homo sapiens, UniProt P28845)
T1 construct: expressed in transfected cells; host or cells: CHO cells (microsomes)
Assay: Inhibition of microsomal preparation of 11β-HSD1 (SPA, [3H]cortisone to [3H]cortisol)
Assay type: biochemical
Conditions: for Average % inhibition at 100 nM / inhibition at 0.1 µM: compound at 100 nM; for pIC50: microsomes from CHO cells overexpressing human 11β-HSD1, 160 nM [3H]cortisone, read-out: Biological Test Example 1 (IC50 class)
Experimental: The inhibition of microsomal preparation of 11β-HSD1 by compounds of the invention was measured essentially as previously described (K. Solly, S. S. Mundt, H. J. Zokian, G. J. Ding, A. Hermanowski-Vosatka, B. Strulovici, and W. Zheng, High-Throughput Screening of 11-Beta-Hydroxysteroid Dehydrogenase Type 1 in Scintillation Proximity Assay Format. Assay Drug Dev Technol 3 (2005) 377-384). All reactions were carried out at room temperature in 96 well clear flexible PET Microbeta plates (PerkinElmer). The assay begins by dispensing 49 μl of substrate solution (50 mM HEPES, pH 7.4, 100 mM KCl, 5 mM NaCl, 2 mM MgCl2, 2 mM NADPH and 160 nM [^3H]cortisone (1 Ci/mmol)) and mixing in 1 μL of the test compounds in DMSO previously diluted in half-log increments (8 points) starting at 0.1 mM. After a 10 minute pre-incubation, 50 μL of enzyme solution containing microsomes isolated from CHO cells overexpressing human 11β-HSD1 (10-20 μg/ml of total protein) was added, and the plates were incubated for 90 minutes at room temperature. The reaction was stopped by adding 50 μl of the SPA beads suspension containing 10 μM 18β-glycyrrhetinic acid, 5 mg/ml protein A coated YSi SPA beads (GE Healthcare) and 3.3 μg/ml of anti-cortisol antibody (East Coast Biologics) in Superblock buffer (Bio-Rad). The plates were shaken for 120 minutes at room temperature, and the SPA signal corresponding to [^3H]cortisol was measured on a Microbeta plate reader.

T1 sequence (P28845 whole entry): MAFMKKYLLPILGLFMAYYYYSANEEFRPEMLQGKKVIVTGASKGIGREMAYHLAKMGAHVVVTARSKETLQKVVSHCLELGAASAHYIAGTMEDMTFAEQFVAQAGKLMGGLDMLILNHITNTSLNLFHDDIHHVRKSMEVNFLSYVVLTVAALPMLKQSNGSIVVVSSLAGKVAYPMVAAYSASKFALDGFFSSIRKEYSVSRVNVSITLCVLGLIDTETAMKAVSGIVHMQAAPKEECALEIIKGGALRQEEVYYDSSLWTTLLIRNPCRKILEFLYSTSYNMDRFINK

Structure (SMILES) | Average % inhibition at 100 nM (0.1 µM) [%] | pIC50 | inhibition at 0.1 µM [%] | Average % inhibition at 100 nM [%]
CC(C)(C)N1CCC(CCCO)(c2ccccc2)OC1=O (single isomer, unassigned) [EXAMPLE 8 Isomer 1, 3-tert-butyl-6-(3-hydroxypropyl)-6-phenyl-1,3-oxazinan-2-one] | 84.0 | > 7.00 |  | 
CC(C)(C)N1CCC(CCCO)(c2ccccc2)OC1=O (single isomer, unassigned) [EXAMPLE 8 Isomer 2, 3-tert-butyl-6-(3-hydroxypropyl)-6-phenyl-1,3-oxazinan-2-one] | 22.1 | < 7.00 |  | 
CC(C)(C)N1CCC(CCCO)(c2ccc(F)cc2)OC1=O (single isomer, unassigned) [EXAMPLE 9 Isomer 1, 3-tert-butyl-6-(4-fluorophenyl)-6-(3-hydroxypropyl)-1,3-oxazinan-2-one] | 74.7 | > 7.00 |  | 
CC(C)(C)N1CCC(CCCO)(c2ccc(F)cc2)OC1=O (single isomer, unassigned) [EXAMPLE 9 Isomer 2, 3-tert-butyl-6-(4-fluorophenyl)-6-(3-hydroxypropyl)-1,3-oxazinan-2-one] | 25.45 | < 7.00 |  | 
C[C@H](N1CCC(CCCO)(c2ccccc2)OC1=O)C(C)(C)O (single isomer, unassigned) [EXAMPLE 10 Isomer 1] | 66.8 | > 7.00 |  | 
C[C@H](N1CCC(CCCO)(c2ccccc2)OC1=O)C(C)(C)O (single isomer, unassigned) [EXAMPLE 10 Isomer 2] | 13.4 | < 7.00 |  | 
C=CCC1(c2ccccc2)CCN([C@@H](C)C(C)(C)O)C(=O)O1 (single isomer, unassigned) [EXAMPLE 12 Isomer 1] |  | < 7.00 | 47.2 | 
C=CCC1(c2ccccc2)CCN([C@@H](C)C(C)(C)O)C(=O)O1 (single isomer, unassigned) [EXAMPLE 12 Isomer 2] | 53.9 | > 7.00 |  | 
C[C@H](N1CC[C@](CCO)(c2ccc(F)cc2)OC1=O)C(C)(C)C (single isomer, unassigned; isomer 1) [EXAMPLE 1 Isomer 1] |  | > 7.00 |  | 94.4
C[C@H](N1CC[C@@](CCO)(c2ccc(F)cc2)OC1=O)C(C)(C)C (single isomer, unassigned; isomer 2) [EXAMPLE 1 Isomer 2] |  | > 7.00 |  | 36.5
C[C@H](N1CC[C@](CCCO)(c2ccc(F)cc2)OC1=O)C(C)(C)C [EXAMPLE 2] |  | > 7.00 | 98.6 | 
C[C@H](N1CC[C@](CCCO)(c2ccccc2)OC1=O)C(C)(C)C [EXAMPLE 3 Isomer 1] |  | > 7.00 | 94 | 
C[C@H](N1CC[C@@](CCCO)(c2ccccc2)OC1=O)C(C)(C)C [EXAMPLE 3 Isomer 2, (S)-3-((S)-3,3-dimethylbutan-2-yl)-6-(3-hydroxypropyl)-6-phenyl-1,3-oxazinan-2-one] |  | > 7.00 | 58.8 | 
C[C@H](N1CC[C@](CCC(N)=O)(c2ccc(F)cc2)OC1=O)C(C)(C)C [EXAMPLE 4, 3-((R)-3-((S)-3,3-dimethylbutan-2-yl)-6-(4-fluorophenyl)-2-oxo-1,3-oxazinan-6-yl)propanamide] |  | > 7.00 | 91.8 | 
C[C@H](N1CC[C@](CCNS(C)(=O)=O)(c2ccc(F)cc2)OC1=O)C(C)(C)C [EXAMPLE 5, N-(2-((S)-3-((S)-3,3-dimethylbutan-2-yl)-6-(4-fluorophenyl)-2-oxo-1,3-oxazinan-6-yl)ethyl)methanesulfonamide] |  | > 7.00 | 91 | 
C[C@H](N1CC[C@](CCCNS(C)(=O)=O)(c2ccc(F)cc2)OC1=O)C(C)(C)C [EXAMPLE 6, N-(3-((R)-3-((S)-3,3-dimethylbutan-2-yl)-6-(4-fluorophenyl)-2-oxo-1,3-oxazinan-6-yl)propyl)methanesulfonamide] |  | > 7.00 | 95.9 | 
C[C@H](N1CC[C@](CCO)(c2ccc(F)cc2)NC1=O)C(C)(C)C [EXAMPLE 7, (S)-1-((S)-3,3-dimethylbutan-2-yl)-4-(4-fluorophenyl)-4-(2-hydroxyethyl)tetrahydropyrimidin-2(1H)-one] |  | > 7.00 | 93.3 | 
C[C@H](N1CC[C@](CCCO)(c2ccc(F)cc2)NC1=O)C(C)(C)C [EXAMPLE 11, (R)-1-((S)-3,3-dimethylbutan-2-yl)-4-(4-fluorophenyl)-4-(3-hydroxypropyl)tetrahydropyrimidin-2(1H)-one] |  | > 7.00 | 97 | 
